# Experimental data published in paper PMC2963183, “Enzyme Inhibition by Molluscicidal Components of Myristica fragrans Houtt. in the Nervous Tissue of Snail Lymnaea acuminata” (Enzyme Research, 2009).
# How the values were obtained:
# [1] = molecular target: T1, alkaline phosphatase (ALP); test: 4-nitrophenol release, […] nm; assay type: biochemical, Lymnaea acuminata; conditions: 4-nitrophenyl phosphate, glycine-NaOH buffer, MgCl2, 37°C, 15 min preincubation at 25°C, tissue homogenate supernatant
# T1 construct: native, crude nervous tissue homogenate supernatant (5000 g), not purified; isoenzyme not identified
# acid phosphatase (ACP) [2] = molecular target: T2, acid phosphatase (ACP); test: 4-nitrophenol release, […] nm; assay type: biochemical, Lymnaea acuminata; conditions: 4-nitrophenyl phosphate, citrate acid buffer, 37°C, 15 min preincubation at 25°C, tissue homogenate supernatant
# T2 construct: native, crude nervous tissue homogenate supernatant (5000 g), not purified; isoenzyme not identified
# [3] = molecular target: T3, acetylcholinesterase (AChE); test: Ellman assay, […] nm; assay type: biochemical, Lymnaea acuminata; conditions: acetylthiocholine iodide, pH 8.0, 25°C, 15 min preincubation; tissue homogenate supernatant; competitive noncompetitive
# T3 construct: native, crude nervous tissue homogenate supernatant (1000 g), not purified
# [4] = test system: T3, acetylcholinesterase (AChE); test: Ellman assay, […] nm, Lineweaver-Burk; assay type: biochemical, Lymnaea acuminata; conditions: pH 8.0, 25°C; no inhibitor; tissue homogenate supernatant
# [5] = test system: alkaline phosphatase (ALP); conditions: glycine-NaOH buffer, MgCl2, 37°C; no inhibitor; tissue homogenate supernatant
# acid phosphatase (ACP) [6] = conditions: citrate acid buffer, 37°C; no inhibitor; tissue homogenate supernatant
structure (smiles),measurement,setting,value
"CCCCCCCCCCCCCC(=O)OCC(COC(=O)CCCCCCCCCCCCC)OC(=O)CCCCCCCCCCCCC [trimyristin, 1,2,3-tritetradecanoylglycerol]",IC50,[1]; competitive noncompetitive,180 µM
same,IC50,acid phosphatase (ACP) [2]; uncompetitive,160 µM
same,IC50,[3],110 µM
CC(=O)SCC[N+](C)(C)C [acetylthiocholine iodide],Km,[4],317 µM
O=[N+]([O-])c1ccc(OP(=O)(O)O)cc1 [4-nitrophenyl phosphate],Km,[5],20 µM
same,Km,acid phosphatase (ACP) [6],13.7 µM
"C=CCc1cc(OC)c2c(c1)OCO2 [myristicin, 4-methoxy-6-(2-propenyl)-1,3-benzodioxole]",IC50,[1]; uncompetitive,60 µM
same,IC50,acid phosphatase (ACP) [2]; competitive,70 µM
same,IC50,[3],30 µM
